{"source": "paper PMC8113725", "about": "“Structure–activity relationship of ipglycermide binding to phosphoglycerate mutases” (The Journal of Biological Chemistry, 2021)", "key": {"D. immitis iPGM": {"biological_target": "D. immitis iPGM (Dirofilaria immitis, UniProt F4ZE01)", "experiment": "biochemical"}, "E. coli iPGM [1]": {"biological_target": "T1, E. coli iPGM (Escherichia coli, UniProt P37689)", "experiment": "biochemical", "settings": "[…]"}, "E. coli iPGM [2]": {"biological_target": "T1, E. coli iPGM", "experiment": "SPR binding kinetics and saturation binding, biotinylated iPGM on Biotin CAPture chip (Biacore S200)", "settings": "Supplementary Table 5, SPR, E.c. iPGM; for koff / kon: LoQ = limit of quantitation"}, "B. malayi iPGM": {"biological_target": "T2, B. malayi iPGM (Brugia malayi, UniProt Q4VWF8)", "T2 sequence (Q4VWF8 1-515)": "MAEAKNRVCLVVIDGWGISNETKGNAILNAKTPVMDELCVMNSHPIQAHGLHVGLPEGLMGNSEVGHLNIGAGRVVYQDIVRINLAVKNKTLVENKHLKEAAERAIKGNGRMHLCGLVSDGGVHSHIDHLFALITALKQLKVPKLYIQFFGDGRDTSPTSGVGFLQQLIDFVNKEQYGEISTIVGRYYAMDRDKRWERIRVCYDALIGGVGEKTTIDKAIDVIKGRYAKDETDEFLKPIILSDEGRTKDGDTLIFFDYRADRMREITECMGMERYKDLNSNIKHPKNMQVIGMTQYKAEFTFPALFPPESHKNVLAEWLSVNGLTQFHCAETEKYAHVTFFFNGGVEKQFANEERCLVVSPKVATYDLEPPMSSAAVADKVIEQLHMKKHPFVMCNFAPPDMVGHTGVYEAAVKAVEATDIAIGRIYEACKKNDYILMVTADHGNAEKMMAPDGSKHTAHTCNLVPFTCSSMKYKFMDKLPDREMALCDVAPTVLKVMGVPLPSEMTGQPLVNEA", "experiment": "biochemical", "format": "binding", "settings": "for Kd: Supplementary Table 5, SPR, B.m. iPGM, unit inferred"}, "C. elegans iPGM": {"biological_target": "C. elegans iPGM (Caenorhabditis elegans, UniProt G5EFZ1)", "experiment": "SPR binding kinetics and saturation binding, biotinylated iPGM on Biotin CAPture chip (Biacore S200)"}}, "note": "Bridge positions count the residues as written; N and C are the ends. Square brackets hold non-standard residues; d marks the D form. Peptide text beside a SMILES is read from it.", "data": [{"smiles": "COc1ccc(C[C@H]2NC(=O)CSC[C@@H](C(=O)N[C@@H](Cc3ccc(O)cc3)C(=O)N[C@@H](CC(C)C)C(=O)N[C@@H](Cc3ccc(O)cc3)C(N)=O)NC(=O)[C@H](Cc3ccc(O)cc3)NC(=O)[C@H](CC(=O)O)NC(=O)CNC(=O)[C@@H]3CCCN3C(=O)[C@H](Cc3ccc(O)cc3)NC(=O)[C@H](CC(=O)O)NC2=O)cc1", "note": "[Ce-2d Y1D(4OMe)F]", "values": [{"measurement": "IC50", "setting": "D. immitis iPGM; Di iPGM Ave IC50 (M)", "result": "6.18e-08", "unit": "M"}, {"measurement": "IC50", "setting": "E. coli iPGM [1]", "result": 18700, "unit": "nM"}]}, {"smiles": "CC(C)C[C@H](NC(=O)[C@H](Cc1ccc(O)cc1)NC(=O)[C@@H]1CSCC(=O)N[C@H](Cc2ccc(O)cc2)C(=O)N[C@@H](CC(=O)O)C(=O)N[C@@H](Cc2ccc(O)cc2)C(=O)N2CCC[C@H]2C(=O)NCC(=O)N[C@@H](CC(=O)O)C(=O)N[C@@H](Cc2ccc(O)cc2)C(=O)N1)C(=O)N[C@@H](Cc1ccc(O)cc1)C(=O)NCC(=O)NCC(=O)NO", "note": "[Ce-2 T13G, C14NHOH]", "values": [{"measurement": "koff", "setting": "E. coli iPGM [2]", "result": "> LOQ"}, {"measurement": "kon", "setting": "E. coli iPGM [2]", "result": "> LOQ"}, {"measurement": "koff", "setting": "B. malayi iPGM", "result": 0.0284, "unit": "s⁻¹"}, {"measurement": "kon", "setting": "B. malayi iPGM", "result": 110000, "unit": "M⁻¹ s⁻¹"}, {"measurement": "Kd", "setting": "B. malayi iPGM", "result": 245, "unit": "nM"}, {"measurement": "IC50", "setting": "D. immitis iPGM; Di iPGM Ave IC50 (M)", "result": "1.84e-07", "unit": "M"}, {"measurement": "Kd", "setting": "C. elegans iPGM", "result": 16.3, "unit": "nM"}, {"measurement": "koff", "setting": "C. elegans iPGM", "result": 0.00251, "unit": "s⁻¹"}, {"measurement": "kon", "setting": "C. elegans iPGM", "result": 197000, "unit": "M⁻¹ s⁻¹"}]}, {"smiles": "CC(C)C[C@H](NC(=O)[C@H](Cc1ccccc1)NC(=O)[C@@H]1CSCC(=O)N[C@H](Cc2ccc(O)cc2)C(=O)N[C@@H](CC(=O)O)C(=O)N[C@@H](Cc2ccc(O)cc2)C(=O)N2CCC[C@H]2C(=O)NCC(=O)N[C@@H](CC(=O)O)C(=O)N[C@@H](Cc2ccc(O)cc2)C(=O)N1)C(=O)N[C@@H](Cc1ccc(O)cc1)C(=O)NCC(=O)N[C@H](C(=O)N[C@@H](CS)C(N)=O)[C@@H](C)O", "note": "[Ce-2 Y9F] ({CH2CO}-[dY]DYPGDYCFLYGTC-NH2; thioether N-8)", "values": [{"measurement": "IC50", "setting": "D. immitis iPGM; Di iPGM Ave IC50 (M)", "result": "2.69e-09", "unit": "M"}, {"measurement": "IC50", "setting": "D. immitis iPGM; IC50 (M)", "result": "2.79e-09", "unit": "M"}, {"measurement": "IC50", "setting": "E. coli iPGM [1]", "result": 815, "unit": "nM"}]}, {"smiles": "CC(C)C[C@H](NC(=O)[C@H](Cc1ccc(O)cc1)NC(=O)[C@@H]1CSCC(=O)N[C@H](Cc2ccc(O)cc2)C(=O)N[C@@H](CCC(N)=O)C(=O)N[C@@H](Cc2ccc(O)cc2)C(=O)N2CCC[C@H]2C(=O)NCC(=O)N[C@@H](CC(=O)O)C(=O)N[C@@H](Cc2ccc(O)cc2)C(=O)N1)C(=O)N[C@@H](Cc1ccc(O)cc1)C(N)=O", "note": "[Ce-2d D2Q]", "values": [{"measurement": "IC50", "setting": "D. immitis iPGM; Di iPGM Ave IC50 (M)", "result": "3.31e-07", "unit": "M"}, {"measurement": "IC50", "setting": "E. coli iPGM [1]", "result": 8040, "unit": "nM"}]}, {"smiles": "CC(C)C[C@H](NC(=O)[C@H](Cc1ccc(O)cc1)NC(=O)[C@@H]1CSCC(=O)N[C@H](Cc2ccc(O)cc2)C(=O)N[C@@H](CC(=O)O)C(=O)N[C@@H](Cc2ccc(O)cc2)C(=O)N2CCC[C@H]2C(=O)NCC(=O)N[C@@H](CC(=O)O)C(=O)N[C@@H](Cc2ccc(O)cc2)C(=O)N1)C(=O)N[C@@H](Cc1ccc(O)cc1)C(=O)NCC(=O)N[C@H](C(=O)NO)[C@@H](C)O", "note": "[Ce-2 C14NHOH]", "values": [{"measurement": "IC50", "setting": "D. immitis iPGM; Di iPGM Ave IC50 (M)", "result": "2.55e-09", "unit": "M"}, {"measurement": "IC50", "setting": "E. coli iPGM [1]", "result": 14000, "unit": "nM"}]}, {"smiles": "COc1ccc(C[C@@H]2NC(=O)CSC[C@@H](C(=O)N[C@@H](Cc3ccc(O)cc3)C(=O)N[C@@H](CC(C)C)C(=O)N[C@@H](Cc3ccc(O)cc3)C(N)=O)NC(=O)[C@H](Cc3ccc(O)cc3)NC(=O)[C@H](CC(=O)O)NC(=O)CNC(=O)[C@@H]3CCCN3C(=O)[C@H](Cc3ccc(O)cc3)NC(=O)[C@H](CC(=O)O)NC2=O)cc1", "note": "[Ce-2d Y1(4OMe)F]", "values": [{"measurement": "IC50", "setting": "D. immitis iPGM; Di iPGM Ave IC50 (M)", "result": "1.87e-08", "unit": "M"}, {"measurement": "IC50", "setting": "E. coli iPGM [1]", "result": 20000, "unit": "nM"}]}, {"smiles": "CC(C)C[C@H](NC(=O)[C@H](Cc1ccc(O)cc1)NC(=O)[C@@H]1CSCC(=O)N[C@H](Cc2ccc(O)cc2)C(=O)N[C@@H](CC(=O)O)C(=O)N[C@@H](Cc2ccc(O)cc2)C(=O)N2CCC[C@H]2C(=O)NCC(=O)N[C@@H](CC(=O)O)C(=O)N[C@@H](Cc2ccc(O)cc2)C(=O)N1)C(=O)N[C@@H](Cc1ccc(O)cc1)C(=O)NCC(=O)N[C@@H](Cc1c[nH]cn1)C(=O)N[C@@H](CS)C(N)=O", "note": "[Ce-2 T13H]", "values": [{"measurement": "koff", "setting": "E. coli iPGM [2]", "result": 0.0144, "unit": "s⁻¹"}, {"measurement": "kon", "setting": "E. coli iPGM [2]", "result": 103000, "unit": "M⁻¹ s⁻¹"}, {"measurement": "Kd", "setting": "E. coli iPGM [2]; unit inferred", "result": 62.7, "unit": "nM"}, {"measurement": "koff", "setting": "B. malayi iPGM", "result": 0.000587, "unit": "s⁻¹"}, {"measurement": "kon", "setting": "B. malayi iPGM", "result": "1.06e+06", "unit": "M⁻¹ s⁻¹"}, {"measurement": "Kd", "setting": "B. malayi iPGM", "result": 0.555, "unit": "nM"}, {"measurement": "IC50", "setting": "D. immitis iPGM; IC50 (M)", "result": "3.77e-09", "unit": "M"}, {"measurement": "Kd", "setting": "C. elegans iPGM", "result": 0.0264, "unit": "nM"}, {"measurement": "koff", "setting": "C. elegans iPGM", "result": "1.98e-05", "unit": "s⁻¹"}, {"measurement": "kon", "setting": "C. elegans iPGM", "result": 752000, "unit": "M⁻¹ s⁻¹"}]}, {"smiles": "CC(C)C[C@H](NC(=O)[C@H](Cc1ccc(O)cc1)NC(=O)[C@@H]1CSCC(=O)N[C@H](Cc2ccc(O)cc2)C(=O)N[C@@H](CC(=O)O)C(=O)N[C@@H](Cc2ccc(O)cc2)C(=O)N2CCC[C@H]2C(=O)N[C@@H](CC(C)C)C(=O)N[C@@H](CC(=O)O)C(=O)N[C@@H](Cc2ccc(O)cc2)C(=O)N1)C(=O)N[C@@H](Cc1ccc(O)cc1)C(N)=O", "note": "[Ce-2d G5L]", "values": [{"measurement": "IC50", "setting": "E. coli iPGM [1]", "result": 13200, "unit": "nM"}]}]}
